Values quoted from earlier work, collected in US20120294924A1, “Peptide-Lipid Conjugates And Uses Thereof” (priority 2011, published 2012).
No end group written: not given here.

Details: qualitative statement, Li et al., Biochimica et Biophysica Acta 1768:411-418, 2007

Question: For “HAEHKVKIGVEQKYGQFPQGTEVTYTCSGNYFLM [Sushi-3, 34mer peptide from a Sushi domain of horseshoe crab Factor C]”, which “binding to LPS” value is on record?
Answer: bind to LPS
